Data set [1] deals with hh’ (DNA, duplex) CATTTAGGACCAACACAA/TTGTGTTGGTCCTAAATG
The data set is described as follows: fluorescence quenching titration, Hill fit. The following applies: 50 mM NaCl, 10 mM KCl, 5 mM MgCl2; Tris-HCl pH 7.4; 1.5 μM DOX titrated with nucleic acid; apparent; Hill n = 0.96 ± 0.03.

Data set [2] concerns GR20 (DNA, aptamer) ACGCACCATTTGTTTAATATGTTTTTTAATTCCCCTTGTGGTGTGT
Description: fluorescence quenching titration, Hill fit. The following applies: 50 mM NaCl, 10 mM KCl, 5 mM MgCl2; Tris-HCl pH 7.4; 1.5 μM DOX titrated with nucleic acid; apparent; Hill n = 1.13 ± 0.03.

For data set [3], the system named is U31 (DNA, aptamer) ATCCAGAGTGACGCAGCATTTGTTTAATATGTTTTTTAATTCCCCTTGTGGTGTGTTGTGGACACGGTGGCTTAGT
The data set is described as follows: fluorescence quenching titration, Hill fit. Particulars: 50 mM NaCl, 10 mM KCl, 5 mM MgCl2; Tris-HCl pH 7.4; 1.5 μM DOX titrated with nucleic acid; apparent; Hill n = 0.95 ± 0.04.

For data set [4], the system named is ACCO GR20hh’ (DNA, aptamer) ACGCACCATTTGTTTAATATGTTTTTTAATTCCCCTTGTGGTGTGTTTCATTTAGGACCAACACAA/TTGTGTTGGTCCTAAATG
The data set is described as follows: fluorescence quenching titration, Hill fit. Particulars: 50 mM NaCl, 10 mM KCl, 5 mM MgCl2; Tris-HCl pH 7.4; 1.5 μM DOX titrated with nucleic acid; apparent; Hill n = 1.58 ± 0.09.

The target in data set [5] is T1, EGFR* (recombinant extracellular domain of human EGFR) (human, UniProt P00533 25-645). The data set is described as follows: BLI; kon 4.3e5 M-1 s-1; koff 61e-4 s-1; BLI buffer and temperature not in the material; aptamers folded at 1 uM in PBS with 5 mM MgCl2 (95 C 5 min, slow cooling); ACCO assembled in PBS + 5 mM MgCl2 or Tris-HCl pH 7.4, 50 mM NaCl, 10 mM KCl, 5 mM MgCl2. The following applies: protein: recombinant; imperfect hairpin (predicted).

The target of data set [6] is T1, EGFR* (recombinant extracellular domain …). The data set is described as follows: BLI; kon 3.7e5 M-1 s-1; koff 40e-4 s-1; BLI buffer and temperature not in the material; aptamers folded at 1 uM in PBS with 5 mM MgCl2 (95 C 5 min, slow cooling); ACCO assembled in PBS + 5 mM MgCl2 or Tris-HCl pH 7.4, 50 mM NaCl, 10 mM KCl, 5 mM MgCl2. Particulars: protein: recombinant; 18 bp duplex of S5 with 3' end of S3; GR20 part imperfect hairpin (predicted).

Data set [7] shares this target. The data set is described as follows: BLI; kon 2.0e5 M-1 s-1; koff 29e-4 s-1; possibly from the authors' earlier work [36], not marked as cited in table; BLI buffer and temperature not in the material; aptamers folded at 1 uM in PBS with 5 mM MgCl2 (95 C 5 min, slow cooling); ACCO assembled in PBS + 5 mM MgCl2 or Tris-HCl pH 7.4, 50 mM NaCl, 10 mM KCl, 5 mM MgCl2. The following applies: protein: recombinant; imperfect hairpins (predicted).

Turning to `COc1cccc2c1C(=O)c1c(O)c3c(c(O)c1C2=O)C[C@@](O)(C(=O)CO)C[C@@H]3O[C@H]1C[C@H](N)[C@H](O)[C@H](C)O1`, the aKd is 124 ± 3 nM in data set [1], 90 ± 3 nM in data set [2], 47 ± 3 nM in data set [3] and 26 ± 1 nM in data set [4].
For ACGCACCATTTGTTTAATATGTTTTTTAATTCCCCTTGTGGTGTGT (ssDNA) [GR20], in data set [5], the Kd is 14.2 ± 0.5 nM.

B1: ACCO GR20hh' (mixed)
DNA 1: ACGCACCATTTGTTTAATATGTTTTTTAATTCCCCTTGTGGTGTGTTTCATTTAGGACCAACACAA
DNA 2: TTGTGTTGGTCCTAAATG
Consider B1, for which the Kd in data set [6] was 10.8 ± 1.4 nM.

B2: U31 (ssDNA)
DNA: ATCCAGAGTGACGCAGCATTTGTTTAATATGTTTTTTAATTCCCCTTGTGGTGTGTTGTGGACACGGTGGCTTAGT
In the case of B2, the Kd in data set [7] is 15 ± 1.7 nM.

These data come from article PMC12429564.
